The values below come from PMC5214803 (Scientific Reports, 2017).

The target in the experiment is T1, Apc holoenzyme (Apc core complex plus Apcε) (Aromatoleum aromaticum, UniProt Q5P5G2+Q5P5G4).
T1 construct: gene apc3
The following applies: ATP sites in Apcα and Apcα′ inferred from structure.

T1 sequence (Q5P5G4 2-732): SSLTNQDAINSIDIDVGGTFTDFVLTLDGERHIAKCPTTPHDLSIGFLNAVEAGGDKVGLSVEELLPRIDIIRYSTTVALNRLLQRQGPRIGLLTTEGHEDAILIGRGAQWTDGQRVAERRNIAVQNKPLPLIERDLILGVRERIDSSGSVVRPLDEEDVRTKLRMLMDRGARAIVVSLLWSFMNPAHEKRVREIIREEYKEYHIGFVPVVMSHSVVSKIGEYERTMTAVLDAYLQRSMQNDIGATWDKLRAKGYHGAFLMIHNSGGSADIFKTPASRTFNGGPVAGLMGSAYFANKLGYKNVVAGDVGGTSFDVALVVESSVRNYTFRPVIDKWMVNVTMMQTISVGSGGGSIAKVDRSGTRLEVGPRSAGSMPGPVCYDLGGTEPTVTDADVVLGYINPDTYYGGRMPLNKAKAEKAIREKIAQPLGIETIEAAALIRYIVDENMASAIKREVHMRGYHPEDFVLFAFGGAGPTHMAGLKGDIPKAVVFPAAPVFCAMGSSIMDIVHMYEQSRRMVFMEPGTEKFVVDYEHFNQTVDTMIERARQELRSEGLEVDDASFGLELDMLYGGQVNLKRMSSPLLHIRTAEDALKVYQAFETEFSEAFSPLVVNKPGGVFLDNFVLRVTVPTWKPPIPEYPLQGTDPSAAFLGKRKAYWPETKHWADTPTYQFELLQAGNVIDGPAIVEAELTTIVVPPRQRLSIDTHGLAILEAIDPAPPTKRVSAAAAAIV
T1 sequence (Q5P5G2 whole entry): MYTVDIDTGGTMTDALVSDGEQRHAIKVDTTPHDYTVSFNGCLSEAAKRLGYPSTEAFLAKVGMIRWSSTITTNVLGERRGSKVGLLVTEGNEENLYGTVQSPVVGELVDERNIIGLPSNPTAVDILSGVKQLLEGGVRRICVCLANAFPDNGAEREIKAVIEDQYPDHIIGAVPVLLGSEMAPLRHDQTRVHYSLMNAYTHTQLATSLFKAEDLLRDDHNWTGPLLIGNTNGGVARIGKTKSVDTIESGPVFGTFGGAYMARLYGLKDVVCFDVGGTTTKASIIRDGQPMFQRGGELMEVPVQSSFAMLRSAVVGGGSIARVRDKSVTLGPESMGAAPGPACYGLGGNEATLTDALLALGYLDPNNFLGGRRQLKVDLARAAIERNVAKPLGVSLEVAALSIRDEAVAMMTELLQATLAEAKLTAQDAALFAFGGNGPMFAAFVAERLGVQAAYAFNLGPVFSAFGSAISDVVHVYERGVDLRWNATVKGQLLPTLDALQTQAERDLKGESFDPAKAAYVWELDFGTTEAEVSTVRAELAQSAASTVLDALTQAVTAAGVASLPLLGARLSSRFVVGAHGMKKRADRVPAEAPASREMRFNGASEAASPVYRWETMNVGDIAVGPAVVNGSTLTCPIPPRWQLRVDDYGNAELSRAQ
T1 sequence (Q5P5G5 2-684 partner): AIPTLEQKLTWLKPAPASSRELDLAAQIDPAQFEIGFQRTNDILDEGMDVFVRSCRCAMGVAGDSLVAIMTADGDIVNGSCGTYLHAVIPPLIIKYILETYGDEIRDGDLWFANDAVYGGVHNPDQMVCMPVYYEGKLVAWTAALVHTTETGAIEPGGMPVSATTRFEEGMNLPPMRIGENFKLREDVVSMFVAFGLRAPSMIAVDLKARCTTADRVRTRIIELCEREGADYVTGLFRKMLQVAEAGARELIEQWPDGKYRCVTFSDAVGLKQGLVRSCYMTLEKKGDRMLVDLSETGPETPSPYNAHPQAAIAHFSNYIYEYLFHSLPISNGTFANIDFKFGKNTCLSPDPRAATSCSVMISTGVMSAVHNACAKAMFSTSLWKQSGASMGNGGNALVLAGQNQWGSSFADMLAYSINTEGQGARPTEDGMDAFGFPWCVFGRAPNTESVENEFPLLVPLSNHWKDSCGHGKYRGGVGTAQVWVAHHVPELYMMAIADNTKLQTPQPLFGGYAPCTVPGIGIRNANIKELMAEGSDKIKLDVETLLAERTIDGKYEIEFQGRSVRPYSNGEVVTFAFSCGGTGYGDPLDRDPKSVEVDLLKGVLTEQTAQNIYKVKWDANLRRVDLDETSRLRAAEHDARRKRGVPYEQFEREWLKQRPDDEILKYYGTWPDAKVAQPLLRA
T1 sequence (Q5P5G3 whole entry partner): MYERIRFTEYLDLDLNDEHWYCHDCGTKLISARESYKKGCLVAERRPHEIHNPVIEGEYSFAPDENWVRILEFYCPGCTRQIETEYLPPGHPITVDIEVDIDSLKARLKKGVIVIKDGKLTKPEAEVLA
T1 sequence (Q5P5G6 whole entry partner): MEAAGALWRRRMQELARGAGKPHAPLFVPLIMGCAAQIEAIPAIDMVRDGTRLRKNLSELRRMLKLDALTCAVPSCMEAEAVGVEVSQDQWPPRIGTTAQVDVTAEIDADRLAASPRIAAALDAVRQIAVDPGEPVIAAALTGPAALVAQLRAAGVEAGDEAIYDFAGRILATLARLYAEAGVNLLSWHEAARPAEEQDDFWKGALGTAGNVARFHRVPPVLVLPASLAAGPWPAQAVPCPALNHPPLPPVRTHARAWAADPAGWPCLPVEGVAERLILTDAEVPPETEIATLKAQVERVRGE

With `Nc1ncnc2c1ncn2[C@@H]1O[C@H](COP(=O)(O)OP(=O)(O)OP(=O)(O)O)[C@@H](O)[C@H]1O` [ATP], the ATPase activity assay result was “confirmed by determination of the ATPase activity and carboxylation of acetophenone”.
